The values below come from paper PMC6661955, “Indole bearing thiadiazole analogs: synthesis, β-glucuronidase inhibition and molecular docking study” (BMC Chemistry, 2019).

For the experiment, the target named is T1, β-glucuronidase (Bos taurus, UniProt A3KMY8).
T1 sequence (A3KMY8 24-652): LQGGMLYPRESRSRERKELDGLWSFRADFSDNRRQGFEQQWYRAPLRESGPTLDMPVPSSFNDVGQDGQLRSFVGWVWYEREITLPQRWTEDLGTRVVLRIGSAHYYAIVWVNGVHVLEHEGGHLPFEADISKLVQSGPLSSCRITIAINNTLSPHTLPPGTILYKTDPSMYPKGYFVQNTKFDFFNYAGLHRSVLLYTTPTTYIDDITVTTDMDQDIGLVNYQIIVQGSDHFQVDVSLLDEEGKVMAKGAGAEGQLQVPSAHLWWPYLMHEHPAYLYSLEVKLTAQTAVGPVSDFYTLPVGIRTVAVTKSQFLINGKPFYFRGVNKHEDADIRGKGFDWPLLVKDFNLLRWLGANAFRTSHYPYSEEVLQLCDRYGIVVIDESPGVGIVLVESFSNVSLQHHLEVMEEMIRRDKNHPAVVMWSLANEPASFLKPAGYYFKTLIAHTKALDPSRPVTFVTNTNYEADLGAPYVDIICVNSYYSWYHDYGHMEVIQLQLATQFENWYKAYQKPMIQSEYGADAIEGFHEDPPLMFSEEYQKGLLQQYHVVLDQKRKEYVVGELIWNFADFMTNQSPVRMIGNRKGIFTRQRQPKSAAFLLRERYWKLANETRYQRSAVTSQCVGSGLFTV
The experiment in a line: β-glucuronidase inhibition. The format is biochemical. Particulars: grouping in words.
As for `Oc1ccccc1-c1nnc(-c2ccc3[nH]ccc3c2)s1` [Compound 3, 2-(5-(1H-indol-5-yl)-1,3,4-thiadiazol-2-yl)phenol], the “activity group according to inhibitory IC50 values” is given as “highly active”.

For the compound `Oc1cccc(-c2nnc(-c3ccc4[nH]ccc4c3)s2)c1O` [Compound 6, 3-(5-(1H-indol-5-yl)-1,3,4-thiadiazol-2-yl)benzene-1,2-diol], the “activity group according to inhibitory IC50 values” is listed as “highly active”.

Consider `Oc1cccc(-c2nnc(-c3ccc4[nH]ccc4c3)s2)c1` [Compound 4, 3-(5-(indol-5-yl)-1,3,4-thiadiazol-2-yl)phenol], for which the “activity group according to inhibitory IC50 values” is on record as “moderate active”.

On to `Oc1ccc(-c2nnc(-c3ccc4[nH]ccc4c3)s2)cc1` [Compound 9, 4-(5-(1H-indol-5-yl)-1,3,4-thiadiazol-2-yl)phenol], for which the “activity group according to inhibitory IC50 values” is on record as “moderate active”.

For `Cc1ccccc1-c1nnc(-c2ccc3[nH]ccc3c2)s1` [Compound 2, 2-(1H-indol-5-yl)-5-(o-tolyl)-1,3,4-thiadiazole], the “activity group according to inhibitory IC50 values” is given as “low active”.

As for `Cc1ccc(-c2nnc(-c3ccc4[nH]ccc4c3)s2)cc1` [Compound 1, 2-(1H-indol-5-yl)-5-(p-tolyl)-1,3,4-thiadiazole], the “activity group according to inhibitory IC50 values” is reported as “low active”.

For `Fc1ccc(-c2nnc(-c3ccc4[nH]ccc4c3)s2)cc1` [Compound 20, 2-(4-fluorophenyl)-5-(1H-indol-5-yl)-1,3,4-thiadiazole], the “activity group according to inhibitory IC50 values” is given as “moderate active”.

Take `Oc1ccc(-c2nnc(-c3ccc4[nH]ccc4c3)s2)cc1O` [Compound 7, 4-(5-(1H-indol-5-yl)-1,3,4-thiadiazol-2-yl)benzene-1,2-diol]: the “activity group according to inhibitory IC50 values” is given as “highly active”.
